For experiment [1], the target named is T1, human M2 receptor (Homo sapiens, UniProt P08172).
T1 sequence (P08172 1-466): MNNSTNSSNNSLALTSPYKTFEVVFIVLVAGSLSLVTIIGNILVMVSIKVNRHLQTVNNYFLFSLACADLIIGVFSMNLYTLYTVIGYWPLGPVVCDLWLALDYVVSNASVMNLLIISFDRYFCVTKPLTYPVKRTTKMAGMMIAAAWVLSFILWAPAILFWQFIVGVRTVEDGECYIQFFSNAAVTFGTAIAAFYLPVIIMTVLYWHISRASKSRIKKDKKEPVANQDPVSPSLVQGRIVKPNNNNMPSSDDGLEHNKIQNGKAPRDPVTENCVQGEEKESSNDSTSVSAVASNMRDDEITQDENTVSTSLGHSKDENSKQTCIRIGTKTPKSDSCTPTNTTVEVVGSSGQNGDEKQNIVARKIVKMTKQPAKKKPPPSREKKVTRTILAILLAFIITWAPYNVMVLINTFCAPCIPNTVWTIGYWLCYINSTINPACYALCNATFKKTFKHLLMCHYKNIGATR
It counts as cell-based. To be noted: α >1 = positive cooperativity.

For experiment [2], the target named is T1, human M2 receptor.
Setting [3] is: shift in the acetylcholine dose-response curve (Allosteric EC50 shift, GraphPad PRISM).
The mark [4] stands for this setting: Receptor activity EC50, M2-GIRK1/4 activation test, acetylcholine at EC20, allosteric potency, in some cases mean values from two or more determinations.

Like-named read-outs stand apart in the source and are kept apart here.

As to `CC[C@H](NC(=O)c1cn(-c2c(F)cc(F)cc2F)c2nc(N3CC(O)C4(CC4)C3)ccc2c1=O)C(F)(F)F` (single isomer, unassigned) [Example 621], the “Cooperativity (alpha factor)” value on human M2 receptor [1] (shift of acetylcholine dose-response curve (Allosteric EC50 shift)) stood at 44. In addition, on human M2 receptor [2] (Receptor activity EC50, allosteric potency at EC20 acetylcholine, M2-GIRK1/4 reporter cells, in some cases mean of two or more determinations), the EC50 amounted to 0.01 µM. Besides, the Efficiency on human M2 receptor [2] (boosting of the acetylcholine effect at EC20 acetylcholine concentration, M2-GIRK1/4 reporter cells) is listed as 100.0%.
As for `CCC(NC(=O)c1cn(-c2ccc(F)cc2F)c2nc(N3CCN(C(=O)OC)CC3)ccc2c1=O)C(F)(F)F` (single isomer, unassigned; enantiomer a) [Example 24, ent-Methyl 4-{8-(2,4-difluorophenyl)-5-oxo-6-[(1,1,1-trifluorobutan-2-yl)carbamoyl]-5,8-dihydro-1,8-naphthyridin-2-yl}piperazine-1-carboxylate (Enantiomer A)], at human M2 receptor [1] (setting [3]), the “Cooperativity (alpha factor)” value turned out to be 25. At human M2 receptor [2] (setting [4]), this molecule registered a concentration for a half-maximal effect (EC50) of 0.063 µM.
As for `CCC(NC(=O)c1cn(-c2ccc(F)cc2F)c2nc(N3CCN(C(=O)OC)CC3)ccc2c1=O)C(F)(F)F` (single isomer, unassigned; enantiomer b) [Example 25, ent-Methyl 4-{8-(2,4-difluorophenyl)-5-oxo-6-[(1,1,1-trifluorobutan-2-yl)carbamoyl]-5,8-dihydro-1,8-naphthyridin-2-yl}piperazine-1-carboxylate (Enantiomer B)], the “Cooperativity (alpha factor)” value on human M2 receptor [1] (setting [3]) amounted to 20. The molecule also showed a half-maximal effective concentration (EC50) on human M2 receptor [2] (setting [4]) of 0.084 µM.
Regarding `CN(C)c1ccc2c(=O)c(C(=O)NC(C(C)(C)C)C(F)(F)F)cn(-c3ccc(F)cc3F)c2n1` (stereo in doubt) [Example 132, 1-(2,4-Difluorophenyl)-7-(dimethylamino)-4-oxo-N-[(2S)-1,1,1-trifluoro-3,3-dimethylbutan-2-yl]-1,4-dihydro-1,8-naphthyridine-3-carboxamide], the “Cooperativity (alpha factor)” value on human M2 receptor [1] (setting [3]) came to 7. This molecule also returned a concentration for a half-maximal effect (EC50) on human M2 receptor [2] (setting [4]) of 0.01 µM.
On to `CCC(NC(=O)c1cn(-c2ccc(F)cc2F)c2nc(N3CCC(O)C3)ccc2c1=O)C(F)(F)F` (stereo in doubt) [Example 218, 1-(2,4-Difluorophenyl)-7-[3-hydroxypyrrolidin-1-yl]-4-oxo-N-[(2S)-1,1,1-trifluorobutan-2-yl]-1,4-dihydro-1,8-naphthyridine-3-carboxamide], for which the “Cooperativity (alpha factor)” value on human M2 receptor [1] (setting [3]) is 33. At human M2 receptor [2] (setting [4]), this molecule returned an EC50 of 0.153 µM.
In the case of `CC(C)(C)C(NC(=O)c1cn(-c2c(F)cc(F)cc2F)c2nc(N3CCNC3=O)ccc2c1=O)C(F)(F)F` (stereo in doubt) [Example 360, 4-Oxo-7-(2-oxoimidazolidin-1-yl)-N-[(2S)-1,1,1-trifluoro-3,3-dimethylbutan-2-yl]-1-(2,4,6-trifluorophenyl)-1,4-dihydro-1,8-naphthyridine-3-carboxamide], the “Cooperativity (alpha factor)” value at human M2 receptor [1] (setting [3]) is on record as 36. In addition, a half-maximal response at human M2 receptor [2] (setting [4]) (EC50) required 0.006 µM.
Take `O=C(NC12CC3CC(CC(C3)C1)C2)c1cn(-c2ccc(F)cc2F)c2nc(N3CC4C(C3)C4(F)F)ccc2c1=O` (centres unmarked) [Example 2, 7-(6,6-Difluoro-3-azabicylco[3.1.0]hex-3-yl)-1-(2,4-difluorophenyl)-4-oxo-N-(tricyclo[3.3.1.1^3,7]dec-1-yl)-1,4-dihydro-1,8-naphthyridine-3-carboxamide]: at human M2 receptor [1] (setting [3]), the “Cooperativity (alpha factor)” value is reported as 24. On human M2 receptor [2] (setting [4]), this molecule displayed a concentration giving a half-maximal response (EC50) of 0.017 µM.
The corresponding values for `O=C(NC12CC3CC(CC(C3)C1)C2)c1cn(-c2ccc(F)cc2F)c2nc(N3CC[C@@H](F)[C@H](O)C3)ccc2c1=O` [Example 3, 1-(2,4-Difluorophenyl)-7-[(3R,4R)-4-fluoro-3-hydroxypiperidin-1-yl]-4-oxo-N-(tricyclo[3.3.1.1^3,7]dec-1-yl)-1,4-dihydro-1,8-naphthyridine-3-carboxamide] are 30 and 0.017 µM.
Take `COC(=O)N1CCN(c2ccc3c(=O)c(C(=O)NC45CC6CC(CC(C6)C4)C5)cn(-c4ccc(F)cc4F)c3n2)CC1` [Example 4, Methyl 4-[8-(2,4-difluorophenyl)-5-oxo-6-(tricyclo[3.3.1.1^3,7]dec-1-ylcarbamoyl)-5,8-dihydro-1,8-naphthyridin-2-yl]piperazine-1-carboxylate]: the “Cooperativity (alpha factor)” value on human M2 receptor [1] (setting [3]) turned out to be 30. In addition, the concentration for a half-maximal effect (EC50) on human M2 receptor [2] (setting [4]) amounted to 0.024 µM.
On to `O=C(NC12CC3CC(CC(C3)C1)C2)c1cn(-c2ccc(F)cc2F)c2nc(N3CCC(O)(O)C(F)(F)C3)ccc2c1=O` [Example 6, 7-(3,3-Difluoro-4,4-dihydroxypiperidin-1-yl)-1-(2,4-difluorophenyl)-4-oxo-N-(tricyclo[3.3.1.1^3,7]dec-1-yl)-1,4-dihydro-1,8-naphthyridine-3-carboxamide], for which the “Cooperativity (alpha factor)” value on human M2 receptor [1] (setting [3]) is recorded as 15. Moreover, the response on human M2 receptor [2] (setting [4]) was half-maximal at 0.034 µM (EC50).
For `O=C(NC12CC3CC(CC(C3)C1)C2)c1cn(-c2ccc(F)cc2F)c2nc(N3CCC(O)(O)[C@H](F)C3)ccc2c1=O` [Example 7, 1-(2,4-Difluorophenyl)-7-[(3R)-3-fluoro-4,4-dihydroxypiperidin-1-yl]-4-oxo-N-(tricyclo[3.3.1.1^3,7]dec-1-yl)-1,4-dihydro-1,8-naphthyridine-3-carboxamide] the same measures were 34 and 0.034 µM.
For `N#CC1CCCN(c2ccc3c(=O)c(C(=O)NC45CC6CC(CC(C6)C4)C5)cn(-c4ccc(F)cc4F)c3n2)C1` (centres unmarked) [Example 10, 7-(3-Cyanopiperidin-1-yl)-1-(2,4-difluorophenyl)-4-oxo-N-(tricyclo[3.3.1.1^3,7]dec-1-yl)-1,4-dihydro-1,8-naphthyridine-3-carboxamide], the “Cooperativity (alpha factor)” value at human M2 receptor [1] (setting [3]) was found to be 12. On human M2 receptor [2] (setting [4]), the 50% effective concentration (EC50) amounted to 0.06 µM.
For `C[C@@H]1C[C@H](F)CN1c1ccc2c(=O)c(C(=O)NC34CC5CC(CC(C5)C3)C4)cn(-c3ccc(F)cc3F)c2n1` [Example 11, 1-(2,4-Difluorophenyl)-7-[(2R,4S)-4-fluoro-2-methylpyrrolidin-1-yl]-4-oxo-N-(tricyclo[3.3.1.1^3,7]dec-1-yl)-1,4-dihydro-1,8-naphthyridine-3-carboxamide] the same measures were 10 and 0.061 µM.
With `O=C(NC12CC3CC(CC(C3)C1)C2)c1cn(-c2ccc(F)cc2F)c2nc(N3CCC4(C3)CC4(F)F)ccc2c1=O` (centres unmarked) [Example 13, 7-(1,1-Difluoro-5-azaspiro[2.4]hept-5-yl)-1-(2,4-difluorophenyl)-4-oxo-N-(tricyclo[3.3.1.1^3,7]dec-1-yl)-1,4-dihydro-1,8-naphthyridine-3-carboxamide], the “Cooperativity (alpha factor)” value at human M2 receptor [1] (setting [3]) is reported as 6. Moreover, on human M2 receptor [2] (setting [4]), a half-maximal effect (EC50) was put at 0.071 µM.
With `O=C(NC12CC3CC(CC(C3)C1)C2)c1cn(-c2ccc(F)cc2F)c2nc(N3CCCC[C@H]3CO)ccc2c1=O` [Example 15, 1-(2,4-Difluorophenyl)-7-[(2S)-2-(hydroxymethyl)piperidin-1-yl]-4-oxo-N-(tricyclo[3.3.1.1^3,7]dec-1-yl)-1,4-dihydro-1,8-naphthyridine-3-carboxamide], the “Cooperativity (alpha factor)” value on human M2 receptor [1] (setting [3]) is given as 8. This molecule registered an EC50 on human M2 receptor [2] (setting [4]) of 0.085 µM.
For `CO[C@@H]1CCN(c2ccc3c(=O)c(C(=O)NC45CCC(C)(CC4)CC5)cn(-c4ccc(F)cc4F)c3n2)C1` [Example 19, 1-(2,4-Difluorophenyl)-7-[(3R)-3-methoxypyrrolidin-1-yl]-N-(4-methylbicyclo[2.2.2]oct-1-yl)-4-oxo-1,4-dihydro-1,8-naphthyridine-3-carboxamide] the same measures were 12 and 0.058 µM.
Regarding `CC12CCC(NC(=O)c3cn(-c4ccc(F)cc4F)c4nc(N5CC[C@@H](O)C5)ccc4c3=O)(CC1)CC2` [Example 20, 1-(2,4-Difluorophenyl)-7-[(3R)-3-hydroxypyrrolidin-1-yl]-N-(4-methylbicyclo[2.2.2]oct-1-yl)-4-oxo-1,4-dihydro-1,8-naphthyridine-3-carboxamide], the “Cooperativity (alpha factor)” value on human M2 receptor [1] (setting [3]) amounted to 34. The molecule also had a 50% effective concentration (EC50) on human M2 receptor [2] (setting [4]) of 0.042 µM.
On to `CC[C@@H](NC(=O)c1cn(-c2ccc(F)cc2F)c2nc(NCCF)ccc2c1=O)C(F)(F)F` [Example 27, 1-(2,4-Difluorophenyl)-7-[(2-fluoroethyl)amino]-4-oxo-N-[(2R)-1,1,1-trifluorobutan-2-yl]-1,4-dihydro-1,8-naphthyridine-3-carboxamide], for which, at human M2 receptor [1] (setting [3]), the “Cooperativity (alpha factor)” value came out at 20. On human M2 receptor [2] (setting [4]), the midpoint of the response, the EC50, lay at 0.089 µM.
For the molecule `CC[C@@H](NC(=O)c1cn(-c2ccc(F)cc2F)c2nc(N3C[C@@H](F)C[C@H]3C)ccc2c1=O)C(F)(F)F` [Example 31, 1-(2,4-Difluorophenyl)-7-[(2R,4S)-4-fluoro-2-methylpyrrolidin-1-yl]-4-oxo-N-[(2R)-1,1,1-trifluorobutan-2-yl]-1,4-dihydro-1,8-naphthyridine-3-carboxamide], the “Cooperativity (alpha factor)” value on human M2 receptor [1] (setting [3]) is 13. Besides, the concentration giving a half-maximal response (EC50) at human M2 receptor [2] (setting [4]) is 0.04 µM.
As for `CC[C@@H](NC(=O)c1cn(-c2ccc(F)cc2F)c2nc(N3CC[C@@H](F)[C@H](O)C3)ccc2c1=O)C(F)(F)F` [Example 33, 1-(2,4-Difluorophenyl)-7-[(3R,4R)-4-fluoro-3-hydroxypiperidin-1-yl]-4-oxo-N-[(2R)-1,1,1-trifluorobutan-2-yl]-1,4-dihydro-1,8-naphthyridine-3-carboxamide], the “Cooperativity (alpha factor)” value on human M2 receptor [1] (setting [3]) is 20. Also, the half-maximal effective concentration (EC50) on human M2 receptor [2] (setting [4]) is 0.091 µM.
